From ChEMBL document CHEMBL3865816, “Design, synthesis and biological evaluation of novel azaspiro analogs of linezolid as antibacterial and antitubercular agents” (Eur J Med Chem, 2016)
≈ marks a conversion by molar mass, not a printed value.

Tests used:
Assay type in all cases: functional
[1] = system: Mycobacterium tuberculosis variant bovis; assay: Antitubercular activity against dormant stage Mycobacterium bovis BCG ATCC 35734 at 10 ug/ml measured after 12 days by nitrate reductase assay; details: ATCC 35734, 288 h
[2] = system: Mycobacterium tuberculosis variant bovis; assay: Antitubercular activity against dormant stage Mycobacterium bovis BCG ATCC 35734 at 3 ug/ml measured after 12 days by nitrate reductase assay; details: ATCC 35734, 288 h
[3] = system: Mycobacterium tuberculosis variant bovis; assay: Antitubercular activity against dormant stage Mycobacterium bovis BCG ATCC 35734 measured after 12 days by nitrate reductase assay; details: ATCC 35734, 288 h
[4] = system: Mycobacterium tuberculosis variant bovis; assay: Antitubercular activity against dormant stage Mycobacterium bovis BCG ATCC 35734 at 30 ug/ml measured after 12 days by nitrate reductase assay; details: ATCC 35734, 288 h
[5] = system: Mycobacterium tuberculosis variant bovis; assay: Antitubercular activity against active stage Mycobacterium bovis BCG ATCC 35734 measured after 8 days by nitrate reductase assay; details: ATCC 35734, 192 h

Structure (SMILES)	inhibition at 10 µg/mL [1]	inhibition at 3 µg/mL [2]	IC50 [3]	MIC [3]	inhibition at 30 µg/mL [4]	IC50 [5]	MIC [5]
COCC(=O)NC[C@H]1CN(c2ccc(N3CC4(COC4)C3)c(F)c2)C(=O)O1	97.2%	74.5%	> 100 µg/mL	> 100 µg/mL	98.6%	–	–
CC(=O)OCC(=O)NC[C@H]1CN(c2ccc(N3CC4(COC4)C3)c(F)c2)C(=O)O1	99.6%	99.2%	3.05 µg/mL (≈ 7.49 µM)	5.77 µg/mL (≈ 14.2 µM)	99.4%	3.35 µg/mL (≈ 8.22 µM)	6.32 µg/mL (≈ 15.5 µM)
O=C1O[C@@H](CNS(=O)(=O)c2cc([N+](=O)[O-])ccc2Cl)CN1c1ccc(N2CC3(COC3)C2)c(F)c1	11.6%	11.1%	> 100 µg/mL	> 100 µg/mL	15%	–	–
O=C1O[C@@H](CNS(=O)(=O)c2cccc(C(F)(F)F)c2)CN1c1ccc(N2CC3(COC3)C2)c(F)c1	-6.57%	-2.23%	> 100 µg/mL	> 100 µg/mL	-5.29%	–	–
COc1ccc(NC(=S)NC[C@H]2CN(c3ccc(N4CC5(COC5)C4)c(F)c3)C(=O)O2)cc1	63%	18.9%	> 100 µg/mL	> 100 µg/mL	73.2%	–	–
O=C(NC[C@H]1CN(c2ccc(N3CC4(COC4)C3)c(F)c2)C(=O)O1)c1cccnc1	101%	76.2%	> 100 µg/mL	> 100 µg/mL	102%	–	–
O=C1O[C@@H](CNC(=S)Nc2ccc(Cl)cc2)CN1c1ccc(N2CC3(COC3)C2)c(F)c1	-10.1%	-1.89%	> 100 µg/mL	> 100 µg/mL	-26.1%	–	–
O=C1O[C@@H](CNC(=S)Nc2cccc(C(F)(F)F)c2)CN1c1ccc(N2CC3(COC3)C2)c(F)c1	83.9%	29.6%	> 100 µg/mL	> 100 µg/mL	94.8%	–	–
NC[C@H]1CN(c2ccc(N3CC4(COC4)C3)c(F)c2)C(=O)O1	52%	-0.29%	17.3 µg/mL (≈ 56.4 µM)	24.4 µg/mL (≈ 79.2 µM)	89.4%	15.7 µg/mL (≈ 51.2 µM)	29.5 µg/mL (≈ 96 µM)
O=C(NC[C@H]1CN(c2ccc(N3CC4(COC4)C3)c(F)c2)C(=O)O1)c1ccno1	86.1%	66.9%	4.83 µg/mL (≈ 12 µM)	10.1 µg/mL (≈ 25.2 µM)	89%	4.11 µg/mL (≈ 10.2 µM)	9.82 µg/mL (≈ 24.4 µM)
O=C1O[C@@H](CNC(=S)Nc2ccc([N+](=O)[O-])cc2)CN1c1ccc(N2CC3(COC3)C2)c(F)c1	-15.8%	39.9%	> 100 µg/mL	> 100 µg/mL	-6.89%	–	–
O=C1OC2(CCNC2)CN1c1ccc(N2CCOCC2)c(F)c1 (centres undefined)	-16.8%	-3.11%	> 100 µg/mL	> 100 µg/mL	-7.3%	–	–
O=C(NC[C@H]1CN(c2ccc(N3CC4(COC4)C3)c(F)c2)C(=O)O1)c1ccc(C(F)(F)F)cc1	8.62%	65%	> 100 µg/mL	> 100 µg/mL	73.1%	–	–
OC1(CNc2ccc(N3CCOCC3)c(F)c2)CCN(Cc2ccccc2)C1 (centres undefined)	-6.66%	-6.7%	> 100 µg/mL	> 100 µg/mL	-1.83%	–	–
CC(=O)NC[C@H]1CN(c2ccc(N3CC4(COC4)C3)c(F)c2)C(=O)O1	100%	99.1%	0.81 µg/mL (≈ 2.32 µM)	1.67 µg/mL (≈ 4.78 µM)	95.9%	0.79 µg/mL (≈ 2.26 µM)	1.83 µg/mL (≈ 5.24 µM)
CC(=O)NC[C@H]1CN(c2ccc(C3=C[C@H]4CC[C@@H](C3)N4C(=O)OC(C)(C)C)c(F)c2)C(=O)O1	89.3%	57.9%	5.82 µg/mL (≈ 12.7 µM)	23.1 µg/mL (≈ 50.4 µM)	96.3%	4.35 µg/mL (≈ 9.47 µM)	31.2 µg/mL (≈ 67.8 µM)
N#Cc1ccc(NC(=S)NC[C@H]2CN(c3ccc(N4CC5(COC5)C4)c(F)c3)C(=O)O2)cc1	97.2%	97.4%	> 100 µg/mL	> 100 µg/mL	88.1%	–	–
CC(C)(C)NC(=S)NC[C@H]1CN(c2ccc(N3CC4(COC4)C3)c(F)c2)C(=O)O1	-3.89%	-9.84%	> 100 µg/mL	> 100 µg/mL	33.6%	–	–
O=C1OC2(CCN(Cc3ccccc3)C2)CN1c1ccc(N2CCOCC2)c(F)c1 (centres undefined)	-9.32%	-11.8%	> 100 µg/mL	> 100 µg/mL	-11.2%	–	–
O=C1O[C@@H](CNC(=O)C23CC4CC(CC(C4)C2)C3)CN1c1ccc(N2CC3(COC3)C2)c(F)c1	44.1%	11.8%	> 100 µg/mL	> 100 µg/mL	62.6%	–	–
CC(=O)N1CCC2(C1)CN(c1ccc(N3CCOCC3)c(F)c1)C(=O)O2 (centres undefined)	-3.02%	-2.09%	> 100 µg/mL	> 100 µg/mL	8.79%	–	–
O=C1O[C@@H](CNS(=O)(=O)c2cc(Cl)cc(Cl)c2)CN1c1ccc(N2CC3(COC3)C2)c(F)c1	-2.28%	25.9%	> 100 µg/mL	> 100 µg/mL	3.87%	–	–
O=C1O[C@@H](CNC(=S)Nc2ccccc2F)CN1c1ccc(N2CC3(COC3)C2)c(F)c1	92.9%	42.1%	17.7 µg/mL (≈ 38.4 µM)	61.2 µg/mL (≈ 133 µM)	94.7%	13.1 µg/mL (≈ 28.4 µM)	44.5 µg/mL (≈ 96.5 µM)
O=C(NC[C@H]1CN(c2ccc(N3CC4(COC4)C3)c(F)c2)C(=O)O1)Nc1ccc(Cl)cc1	-3.58%	-5.78%	> 100 µg/mL	> 100 µg/mL	28.6%	–	–
CC(C)NC(=S)NC[C@H]1CN(c2ccc(N3CC4(COC4)C3)c(F)c2)C(=O)O1	74.6%	21.9%	> 100 µg/mL	> 100 µg/mL	94.4%	–	–
CC1(C)[C@@]2(C)CC[C@]1(C(=O)NC[C@H]1CN(c3ccc(N4CC5(COC5)C4)c(F)c3)C(=O)O1)OC2=O	3.86%	-35.3%	> 100 µg/mL	> 100 µg/mL	8.27%	–	–
O=C1O[C@@H](CNS(=O)(=O)c2ccc(Cl)s2)CN1c1ccc(N2CC3(COC3)C2)c(F)c1	83.5%	34.8%	> 100 µg/mL	> 100 µg/mL	91.7%	–	–
CC(=O)NC[C@H]1CN(c2ccc(N3CCOCC3)c(F)c2)C(=O)O1 [LINEZOLID]	101%	101%	0.31 µg/mL (≈ 0.919 µM)	0.43 µg/mL (≈ 1.27 µM)	101%	0.029 µg/mL (≈ 0.086 µM)	0.42 µg/mL (≈ 1.24 µM)
